Drawing on ChEMBL document CHEMBL5506046, “Discovery of LLC355 as an Autophagy-Tethering Compound for the Degradation of Discoidin Domain Receptor 1” (J Med Chem, 2024), this text covers Activity and inhibition for 16 compounds.

Test [1] concerns the target LC3/Epithelial discoidin domain-containing receptor 1 (Homo sapiens, UniProt Q08345+Q9BXW4+Q9GZQ8+Q9H492). Kind of test: Autophagosome tethering activity at DDR1 in human NCI-H23 cells assessed as protein degradation at 0.3 uM measured after 24 hrs by immunoblotting analysis relative to control. The format is cell-based.
Test [2] relates to NCI-H23. Kind of test: Inhibition of tumorigenicity in human NCI-H23 cells at 1 uM incubated for 10 days by colony formation assay. The format is functional, cell-based. To be noted: time 10.0 day.
Test [3] concerns NCI-H23. Kind of test: Inhibition of cell migration in human NCI-H23 cells at 1 uM incubated for 24 hrs by transwell assay. The format is functional, cell-based.
Test [4] concerns NCI-H23. Kind of test: Inhibition of cell invasion in human NCI-H23 cells at 1 uM incubated for 24 hrs by transwell assay. The format is functional, cell-based.

Calls of active or inactive are those of the source. The calls are words filed in the database; no cut-off is given here.

For the compound `CCc1ccc(C(=O)Nc2cc(CN3CCN(C(=O)CCCCCNC(=O)COc4c(Br)cc(/C=C5\C(=O)Nc6ccc(I)cc65)cc4Br)CC3)cc(C(F)(F)F)c2)cc1C#Cc1cnc2ccnn2c1`, the Activity in test [1] stood at 12%.

For the compound `CCc1ccc(C(=O)Nc2cc(CN3CCN(CC(=O)NCCCN(C(=O)c4ccc(C)cc4)[C@@H](c4nc5cc(Cl)ccc5c(=O)n4Cc4ccccc4)C(C)C)CC3)cc(C(F)(F)F)c2)cc1C#Cc1cnc2ccnn2c1`, the Activity in test [1] turned out to be 4%.

For `CCc1ccc(C(=O)Nc2cc(CN3CCN(C(=O)CNC(=O)COc4c(Br)cc(/C=C5\C(=O)Nc6ccc(I)cc65)cc4Br)CC3)cc(C(F)(F)F)c2)cc1C#Cc1cnc2ccnn2c1`, the Activity in test [1] was determined as 16%.

Regarding `CCc1ccc(C(=O)Nc2cc(CN3CCN(CCOCCOCC(=O)NCCCN(C(=O)c4ccc(C)cc4)[C@@H](c4nc5cc(Cl)ccc5c(=O)n4Cc4ccccc4)C(C)C)CC3)cc(C(F)(F)F)c2)cc1C#Cc1cnc2ccnn2c1`, the Activity in test [1] was 0%.

Consider `CCc1ccc(C(=O)Nc2cc(CN3CCN(CCCCCC(=O)NCCCN(C(=O)c4ccc(C)cc4)[C@@H](c4nc5cc(Cl)ccc5c(=O)n4Cc4ccccc4)C(C)C)CC3)cc(C(F)(F)F)c2)cc1C#Cc1cnc2ccnn2c1`, for which, in test [1], the Activity was found to be 13%.

Regarding `CCc1ccc(C(=O)Nc2cc(CN3CCN(C(=O)COCCNC(=O)COc4c(Br)cc(/C=C5\C(=O)Nc6ccc(I)cc65)cc4Br)CC3)cc(C(F)(F)F)c2)cc1C#Cc1cnc2ccnn2c1`, the Activity in test [1] was determined as 0%.

Turning to `CCc1ccc(C(=O)Nc2cc(CN3CCN(C(=O)COCCOCCOCCNC(=O)COc4c(Br)cc(/C=C5\C(=O)Nc6ccc(I)cc65)cc4Br)CC3)cc(C(F)(F)F)c2)cc1C#Cc1cnc2ccnn2c1`, the Activity in test [1] was 0%.

As to `CC#Cc1cc(C(=O)Nc2cc(CN3CCN(CCOCC(=O)NCCCN(C(=O)c4ccc(C)cc4)[C@@H](c4nc5cc(Cl)ccc5c(=O)n4Cc4ccccc4)C(C)C)CC3)cc(C(F)(F)F)c2)ccc1CC`, the inhibition result in the test on NCI-H23 [2], with NCI-H23 [3] and in the test with NCI-H23 [4] was “inactive” in each case.

Turning to `CCc1ccc(C(=O)Nc2cc(CN3CCN(CCCCCCCC(=O)NCCCN(C(=O)c4ccc(C)cc4)[C@@H](c4nc5cc(Cl)ccc5c(=O)n4Cc4ccccc4)C(C)C)CC3)cc(C(F)(F)F)c2)cc1C#Cc1cnc2ccnn2c1`, the Activity in test [1] worked out at 6%.

`CCc1ccc(C(=O)Nc2cc(CN3CCN(CCCC(=O)NCCCN(C(=O)c4ccc(C)cc4)[C@@H](c4nc5cc(Cl)ccc5c(=O)n4Cc4ccccc4)C(C)C)CC3)cc(C(F)(F)F)c2)cc1C#Cc1cnc2ccnn2c1`: in test [1], the Activity was found to be 6%.

Consider `CCc1ccc(C(=O)Nc2cc(CN3CCN(C(=O)COc4c(Br)cc(/C=C5\C(=O)Nc6ccc(I)cc65)cc4Br)CC3)cc(C(F)(F)F)c2)cc1C#Cc1cnc2ccnn2c1`, for which, in test [1], the Activity came to 4%.

As for `CCc1ccc(C(=O)Nc2cc(CN3CCN(CCCCCCCCCC(=O)NCCCN(C(=O)c4ccc(C)cc4)[C@@H](c4nc5cc(Cl)ccc5c(=O)n4Cc4ccccc4)C(C)C)CC3)cc(C(F)(F)F)c2)cc1C#Cc1cnc2ccnn2c1`, in test [1], the Activity stood at 0%.

For the compound `CCc1ccc(C(=O)Nc2cc(CN3CCN(CCOCCOCCOCC(=O)NCCCN(C(=O)c4ccc(C)cc4)[C@@H](c4nc5cc(Cl)ccc5c(=O)n4Cc4ccccc4)C(C)C)CC3)cc(C(F)(F)F)c2)cc1C#Cc1cnc2ccnn2c1`, the Activity in test [1] is 0%.

Consider `CCc1ccc(C(=O)Nc2cc(CN3CCN(C(=O)COCCOCCNC(=O)COc4c(Br)cc(/C=C5\C(=O)Nc6ccc(I)cc65)cc4Br)CC3)cc(C(F)(F)F)c2)cc1C#Cc1cnc2ccnn2c1`, for which the Activity in test [1] is 9%.

Regarding `CCc1ccc(C(=O)Nc2cc(CN3CCN(C(=O)CCCNC(=O)COc4c(Br)cc(/C=C5\C(=O)Nc6ccc(I)cc65)cc4Br)CC3)cc(C(F)(F)F)c2)cc1C#Cc1cnc2ccnn2c1`, the Activity in test [1] was determined as 17%.

As to `CCc1ccc(C(=O)Nc2cc(CN3CCN(C(=O)CCCCCCCNC(=O)COc4c(Br)cc(/C=C5\C(=O)Nc6ccc(I)cc65)cc4Br)CC3)cc(C(F)(F)F)c2)cc1C#Cc1cnc2ccnn2c1`, the Activity in test [1] is 9%.
